Source: patent US6521655B1, “Substituted imidazoles useful in the treatment of inflammatory diseases” (Ortho-McNeil Pharmaceutical, Inc., priority 1997, dated 2003)

What was measured:
TNF-α [1] = assay: in vitro whole cell assay, LPS-stimulated PBMC, TNF-α ELISA; assay type: cell-based; details: LPS-stimulated human PBMC
Procedure: Aside from the enzyme assay, many of the compounds of the invention were tested in an in vitro whole cell assay using peripheral blood mononuclear cells (“PBMC”) which were obtained from human blood as follows. Freshly obtained venous blood was anticoagulated with heparin, diluted with an equal volume of phosphate buffered saline (“PBS”) and placed in a sterile tube or other container. Aliquots (30 mL) of this mixture were transferred to centrifuge tubes which were underlaid with Ficoll-Hypaque (15 mL). The prepared tubes were centrifuged at 400×g without braking for 30 min at room temperature. Approximately ½ to ⅔ of the platelet layer above the mononuclear cell band was removed with a pipette. The majority of the mononuclear cell layer was carefully removed using a pipette and these PBMCs were diluted with PBS and spun at 600×g for 15 min. […] A small volume of the suspension was removed for counting on a hemocytometer and the remaining preparation was centrifuged at 200×g for 15 min at room temperature. The recovered pelleted PMBC were resuspended in RPMI/1% FCS to a concentration of 1.67×10^6/mL. To run the assay, the PBMC suspension (180 μL) was transferred to duplicate wells of a 96-well flat-bottom microtiter plate and incubated for 1 h at 37° C. […] A solution (10 μL) of LPS in RPMI/1% FCS (200 ng/mL) was added and the wells were incubated overnight at 37° C. The supernate ([…]) was removed from each well and diluted with RPMI/1% FCS (400 μL). The samples were analyzed for TNF-α using a commercial ELISA kit (Genzyme).

TNF-α [2] = assay: in vivo LPS induced TNF-α production, mice; parameters: species or system Mice (BALB/cJ females); details: 25 mg/kg, oral, LPS 1 mg/kg i.p.
Procedure: (§1) Thirty minutes after dosing, the animals were injected intraperitoneally with LPS at 1 mg/kg and returned to their cages for 1 h. Animals were anesthetized by CO2, exsanguinated by cardiac puncture and whole blood collected (0.1-0.7 mL). The blood was allowed to clot and serum was transferred to a centrifuge tube. This sample was centrifuged, serum was collected, aliquoted and frozen at −80° C. Samples were tested by commercial ELISAs for TNF-α (Endogen for mouse TNF-α and Biosource for rat TNF-α).

TNF-α [3] = assay: in vivo LPS induced TNF-α production, rats; parameters: species or system rats (Lewis males); details: 25 mg/kg, oral, LPS 1 mg/kg i.p.
Procedure: as §1

purified recombinant p38 = biological target: T1, purified recombinant p38 (Homo sapiens, UniProt Q16539); assay: p38 in vitro enzyme assay (33P-ATP, myelin basic protein substrate); assay type: biochemical; details: for IC50: read-out: p-38 IC50
T1 construct: 6xHis; made in house; host or cells: E. coli
T1 sequence (Q16539 whole entry): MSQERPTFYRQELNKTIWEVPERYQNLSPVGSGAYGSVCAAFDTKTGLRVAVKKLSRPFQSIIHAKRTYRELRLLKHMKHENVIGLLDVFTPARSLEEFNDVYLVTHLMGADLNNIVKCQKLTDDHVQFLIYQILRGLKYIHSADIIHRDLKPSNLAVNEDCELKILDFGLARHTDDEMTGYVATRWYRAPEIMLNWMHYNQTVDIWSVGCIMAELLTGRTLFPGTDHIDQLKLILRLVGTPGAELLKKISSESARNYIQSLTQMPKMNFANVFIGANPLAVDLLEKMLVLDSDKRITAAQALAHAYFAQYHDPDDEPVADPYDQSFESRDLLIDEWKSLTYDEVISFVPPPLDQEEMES
Procedure: As discussed previously, agents which inhibit the activity of the enzyme p38, inhibit the production of the inflammatory cytokines TNF-α, and IL-1β. Compounds of the invention were measured for their ability to inhibit the activity of p38 by the following in vitro assay.
A solution (38 μL) of purified recombinant p38 (where the amount of enzyme was determined empirically considering the linear range of the assay and the acceptable signal to noise ratio; 6×His-p38 expressed in E.coli), myelin basic protein substrate (also determined empirically), a buffer of pH 7.5 (Hepes:25 mM, MgCl2:10 mM, MnCl2:10 mM) were added to 92 wells of a 96-well round bottom polypropylene plate. The remaining wells were used for control (“CTRL”) and background (“BKG”). The CTRL was prepared with the enzyme, substrate buffer and 2% DMSO, and the BKG was prepared with substrate buffer and 2% DMSO. A solution (12 μL) of the test compound in DMSO (compounds were diluted to 125 μM in 10% DMSO/H2O and assayed at 25 μM where the final DMSO concentration was 2%) was added to the testing wells. The ATP/^33P-ATP solution (10 μL: containing 50 μM unlabeled ATP and 1 μCi ^33P-ATP) was added to all wells and the completed plates were mixed and incubated at 30° C. for 30 min. Ice-cold 50% TCA/10 mM sodium phosphate (60 μL) were added to each well and the plates were kept on ice for 15 min. The contents of each well were transferred to the wells of a 96-well filterplate (Millipore, MultiScreen-DP) and the filterplate was placed on a vacuum manifold, fitted with a waste collection tray. The wells were washed five times with 10% TCA/10 mM sodium phosphate (200 μL) under vacuum. MicroScint-20 scintillant was added, the plates were sealed using Topseal-S sheets and counted in a Packard TopCount scintillation counter using a ^33P liquid program with color quench correction, where the output is in color quench-corrected cpm. The % inhibition of the test compounds was calculated by the following formula: % inhibition=[1−(sample -BKG)/(CTRL-BKG)]×100.
Although compounds were initially tested at […], if warranted the compounds were tested at 4-fold increments above and below that concentration. In addition, IC50s were calculated for some compounds using the Deltagraph 4-parameter curve fitting program.

IL-1β = assay: in vitro IL-1β assay, plastic-adherent cells from PBMC, LPS stimulation, ELISA; assay type: cell-based; details: Homo sapiens, read-out: inhibition of production of IL-1β, IC50
Procedure: The IL-1β activity of select compounds of the invention was determined by the following in vitro assay. Plastic-adherent cells were prepared from PBMC. Briefly, PBMCs were added to the wells of a 96-well plate as above, incubated for 1 h at 37° C., and the adherent cells prepared by gently resuspending the non-adherent cells with a pipettor, removing and discarding them and gently washing the wells 3 times with 200 μL culture medium. Additional culture medium (180 μL) was added to the wells after the final wash. Compound addition, LPS stimulation, incubation and supernate harvest were as for TNF-α. Supernates were assayed for interleukin-1β using a commercial ELISA (Genzyme).

Compound	IC50 (TNF-α [1]) [nM]	other results
OCCC#Cc1nc(-c2ccc(F)cc2)c(-c2ccncc2)n1CCCc1ccccc1 [Cpd. 4]	3	% Inhibition TNF-α Mice (TNF-α [2]): 49.6%; % Inhibition TNF-α Rats (TNF-α [3]): 91%; IC50 (purified recombinant p38): 650 nM; IC50 (IL-1β): 7 nM
Fc1ccc(-c2[nH]c(/C=C/Cl)nc2-c2ccncc2)cc1 [compound 8]	–	IC50 (purified recombinant p38): 1500 nM
C[Si](C)(C)CCOCn1c(C=C(Br)Br)nc(-c2ccncc2)c1-c1ccc(F)cc1 [compound 10]	–	p-38 % inhibition (purified recombinant p38; @ 5 μm): 16% @ 5 μm
O/N=C/c1nc(-c2ccncc2)c(-c2ccc(F)cc2)[nH]1 [compound 13]	45	–
Fc1ccc(-c2nc(C#CCCCCl)n(CCCc3ccccc3)c2-c2ccncc2)cc1 [compound 14]	4	–
O=C(Nc1ccccc1)OCCC#Cc1nc(-c2ccc(F)cc2)c(-c2ccncc2)n1CCCc1ccccc1 [compound 15]	38	–
Fc1ccc(-c2nc(C#CCCCl)n(CCCc3ccccc3)c2-c2ccncc2)cc1 [compound 16]	6	–
CN(C)CCC#Cc1nc(-c2ccc(F)cc2)c(-c2ccncc2)n1CCCc1ccccc1 [compound 17]	3	–
C[Si](C)(C)CCOCn1c(C=C(Br)Br)nc(-c2ccc(F)cc2)c1-c1ccncc1 [compound 18]	1500	–
OCCCC#Cc1nc(-c2ccc(F)cc2)c(-c2ccncc2)[nH]1 [compound 19]	85	% Inhibition TNF-α Mice (TNF-α [2]): 29%
C[Si](C)(C)CCOCn1c(C#CCCO)nc(-c2ccncc2)c1-c1ccc(F)cc1 [compound 20]	> 10000	–
OCCC#Cc1nc(-c2ccc(F)cc2)c(-c2ccncc2)[nH]1 [compound 21]	80	–
O=C1c2ccccc2C(=O)N1CCCC#Cc1nc(-c2ccc(F)cc2)c(-c2ccncc2)[nH]1 [compound 22]	700	–
OCCCCC#Cc1nc(-c2ccc(F)cc2)c(-c2ccncc2)[nH]1 [compound 24]	100	% Inhibition TNF-α Mice (TNF-α [2]): 73%
CCCC#Cc1nc(-c2ccncc2)c(-c2ccc(F)cc2)n1COCC[Si](C)(C)C [compound 26]	> 2000	% Inhibition TNF-α Mice (TNF-α [2]): 0%
CCCC#Cc1nc(-c2ccncc2)c(-c2ccc(F)cc2)[nH]1 [compound 28]	80	% Inhibition TNF-α Mice (TNF-α [2]): 88%
O=C1c2ccccc2C(=O)N1CCCC#Cc1nc(-c2ccncc2)c(-c2ccc(F)cc2)[nH]1 [compound 29]	200	–
C#Cc1nc(-c2ccc(F)cc2)c(-c2ccncc2)[nH]1 [compound 30]	150	–
Fc1ccc(-c2nc(C#CBr)[nH]c2-c2ccncc2)cc1 [compound 31]	250	–

Compound	IC50 (TNF-α [1]) [nM]	other results
Fc1ccc(-c2nc(C=NOCc3ccccc3)[nH]c2-c2ccncc2)cc1 [compound 32]	80	–
O=[N+]([O-])c1ccc(CON=Cc2nc(-c3ccc(F)cc3)c(-c3ccncc3)[nH]2)cc1 [compound 33]	150	–
CCCC#Cc1nc(-c2ccc(F)cc2)c(-c2ccncc2)n1CCCc1ccccc1 [compound 34]	10	% Inhibition TNF-α Mice (TNF-α [2]): 53%
OCCCC#Cc1nc(-c2ccc(F)cc2)c(-c2ccncc2)n1CCCc1ccccc1 [compound 35]	8	% Inhibition TNF-α Mice (TNF-α [2]): 68%; p-38 % inhibition (purified recombinant p38; @ 20 μm): 99% @ 20 μm
N#CCCCC#Cc1nc(-c2ccc(F)cc2)c(-c2ccncc2)n1CCCc1ccccc1 [compound 36]	9	% Inhibition TNF-α Mice (TNF-α [2]): 69.3%; IC50 (purified recombinant p38): 1500 nM; IC50 (IL-1β): 13 nM
O=C1c2ccccc2C(=O)N1CCCn1c(C#CCCO)nc(-c2ccc(F)cc2)c1-c1ccncc1 [compound 37]	160	–
Fc1ccc(-c2nc(C#CCCCc3ccccc3)n(CCCc3ccccc3)c2-c2ccncc2)cc1 [compound 38]	40	–
CCCCSCCCC#Cc1nc(-c2ccc(F)cc2)c(-c2ccncc2)n1CCCc1ccccc1 [compound 39]	200	–
CCCCS(=O)(=O)CCCC#Cc1nc(-c2ccc(F)cc2)c(-c2ccncc2)n1CCCc1ccccc1 [compound 40]	6.5	–
OCCCCC#Cc1nc(-c2ccc(F)cc2)c(-c2ccncc2)n1CCCc1ccccc1 [compound 43]	5.2	% Inhibition TNF-α Mice (TNF-α [2]): 53%; p-38 % inhibition (purified recombinant p38; @ 20 μm): 98% @ 20 μm
Fc1ccc(-c2nc(C=C(Br)Br)[nH]c2-c2ccncc2)cc1 [compound 44]	200	p-38 % inhibition (purified recombinant p38; @ 20 μm): 93% @ 20 μm
C[Si](C)(C)CCOCn1c(C#CCCCN2C(=O)CCC2=O)nc(-c2ccc(F)cc2)c1-c1ccncc1 [compound 45]	650	–
N#CC=Cc1nc(-c2ccc(F)cc2)c(-c2ccncc2)[nH]1 [compound 46]	250	–
OCC#Cc1nc(-c2ccc(F)cc2)c(-c2ccncc2)n1CCCc1ccccc1 [compound 47]	7.2	–
COCCC#Cc1nc(-c2ccc(F)cc2)c(-c2ccncc2)n1CCCc1ccccc1 [compound 49]	3	–
O=C(OCCC#Cc1nc(-c2ccc(F)cc2)c(-c2ccncc2)n1CCCc1ccccc1)c1ccccc1 [compound 50]	2	–
C=CC#Cc1nc(-c2ccc(F)cc2)c(-c2ccncc2)n1CCCc1ccccc1 [compound 51]	5.5	–
CC(=O)OCCC#Cc1nc(-c2ccc(F)cc2)c(-c2ccncc2)n1CCCc1ccccc1 [compound 52]	2.6	–
